Assay results reported in article PMC9681850, “Structural basis of synthetic agonist activation of the nuclear receptor REV-ERB” (Nature Communications, 2022).
Several values for one entry are separate records, joined by “and”; a condition that tells them apart may be missing. Equal entries are not always repeated.

What was measured:
[1] = target: serotonin transporter (SERT) (Homo sapiens, UniProt P31645); test: PDSP radioligand binding assay; conditions: secondary full displacement curve, read-out: RLBA Ki
Text: (§1) We assessed the specificity of STL1267 using both in house nuclear receptor Gal4-NR reporter assays and the NIMH Psychoactive Drug Screening Program (PDSP) assays. We assessed the specificity of STL1267 in the PDSP’s radioligand displacement assays, screening for binding to off-target GPCRs, ion channels, transporters, and other drug targets (Table S1). Of the 43 targets assessed in this panel, we observed no detectable binding in 41 of them. […] Additional assessment in serotonin transporter and kappa opioid receptor activity in a functional assay may be warranted to determine absolute specificity. […]
(§2) Receptor RLBA Ki Receptor activity
(§3) Suppl ementary Tabl e 1. Speci fi ci ty of STL1267. […]

[2] = target: kappa opioid receptor (KOR) (Homo sapiens, UniProt P41145); test: PDSP radioligand binding assay; conditions: secondary full displacement curve, read-out: RLBA Ki
Text: as §1, §2, §3

[3] = system: proliferating C2C12 mouse myoblast cells; test: cell viability by crystal violet staining; type: cell-based; conditions: for cell viability (Fig. 2b source data): crystal violet, normalized to DMSO, single replicates; for reduction in cellular viability: proliferating C2C12 cells
Protocol: Cellular viability was tested in two cell types, human hepatocarcinoma HepG2 cells and proliferating C2C12 mouse myoblast cells.
Data are presented as mean ± SEM. Source data are available as a Source Data file.
The human hepatocellular carcinoma cell line, HepG2 cells (ATCC HB-8065), were cultured in 10% FBS 1% L-Glu MEM at 37 °C in a humidified atmosphere of 5% CO2. Prior to RNA extraction cells were treated with either DMSO or REV-ERB agonist for 24 h. The C2C12 proliferating mouse myoblast cells (ATCC, CRL-1772) were cultured in 10% FBS DMEM at 37 °C in a humidified atmosphere of 5% CO2. Prior to RNA extraction cells were treated with either DMSO or REV-ERB agonist for 24 h. […]
[…] Media was removed, and cells were incubated with 0.5% crystal violet solution for 20 min at room temperature with mild agitation. Cells were washed four times with tap water before being air drying overnight. Cells were incubated in methanol for 20 min with mild agitation. Absorbance was read at 570 nm, and readings were normalized to vehicle (DMSO) treated cells.

Chain of serotonin transporter (SERT) (P31645 whole entry, species assumed, the tested form may be a part): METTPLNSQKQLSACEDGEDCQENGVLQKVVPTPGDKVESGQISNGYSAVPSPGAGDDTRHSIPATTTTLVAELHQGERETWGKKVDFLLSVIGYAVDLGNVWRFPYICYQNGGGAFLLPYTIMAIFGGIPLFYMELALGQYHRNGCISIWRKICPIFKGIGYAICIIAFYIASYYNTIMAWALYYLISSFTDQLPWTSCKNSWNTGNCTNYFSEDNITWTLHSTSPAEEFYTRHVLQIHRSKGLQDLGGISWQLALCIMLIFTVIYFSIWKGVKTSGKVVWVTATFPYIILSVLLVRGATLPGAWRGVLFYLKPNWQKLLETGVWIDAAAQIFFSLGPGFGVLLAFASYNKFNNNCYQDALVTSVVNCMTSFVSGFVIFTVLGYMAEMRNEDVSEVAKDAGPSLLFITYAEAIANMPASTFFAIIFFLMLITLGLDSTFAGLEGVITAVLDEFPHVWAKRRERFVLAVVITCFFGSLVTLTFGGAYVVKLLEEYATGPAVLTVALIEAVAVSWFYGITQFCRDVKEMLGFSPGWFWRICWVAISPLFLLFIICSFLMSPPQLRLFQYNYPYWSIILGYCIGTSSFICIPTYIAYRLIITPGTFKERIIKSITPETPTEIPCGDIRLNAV
Chain of kappa opioid receptor (KOR) (P41145 whole entry): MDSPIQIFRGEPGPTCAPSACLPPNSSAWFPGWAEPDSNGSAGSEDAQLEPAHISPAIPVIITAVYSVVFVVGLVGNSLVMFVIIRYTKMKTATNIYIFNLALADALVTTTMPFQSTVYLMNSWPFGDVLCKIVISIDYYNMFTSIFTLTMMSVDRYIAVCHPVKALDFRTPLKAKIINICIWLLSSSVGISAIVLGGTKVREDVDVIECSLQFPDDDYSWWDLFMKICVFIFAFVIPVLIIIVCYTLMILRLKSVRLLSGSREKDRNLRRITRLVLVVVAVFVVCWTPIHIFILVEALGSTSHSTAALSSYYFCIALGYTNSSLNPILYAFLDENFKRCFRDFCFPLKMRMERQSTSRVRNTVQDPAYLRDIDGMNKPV

Ki [1]: 2000 to 4000 nM and 2100 nM | Ki [2]: 720 nM
Structure (SMILES): Clc1nnc2ccc(Oc3ccccc3-c3ccccc3)nn12 [STL1267]
cell viability (Fig. 2b source data) ([3]; C2C12, 1 uM): 92.0631 and 77.3068 and 87.5705 and 94.4131 and 98.2145 and 106.232 and 102.707 | cell viability (Fig. 2b source data) ([3]; C2C12, 2 uM): 85.9463 and 90.0242 and 93.8256 and 90.5771 and 97.5579 and 103.433 and 103.26 and 102.949 | cell viability (Fig. 2b source data) ([3]; C2C12, 5 uM): 92.9616 and 90.6808 and 91.0609 and 85.0824 and 101.498 and 105.679 and 104.435 and 94.6204 | cell viability (Fig. 2b source data) ([3]; C2C12, 10 uM): 88.9874 and 85.3588 and 77.2722 and 82.9397 and 90.0242 and 92.8925 and 94.5859 and 92.7197 | cell viability (Fig. 2b source data) ([3]; C2C12, 20 uM): 77.9634 and 78.8964 and 75.3024 and 82.4905 and 83.4236 and 81.9721 and 84.5985 and 90.5771 | reduction in cellular viability ([3]; 10 μM): ~ 10% | reduction in cellular viability ([3]; 20 μM): ~ 20%
